Data taken from patent US20240350511A1, “TREATMENT OF COVID-19” (priority 2021, published 2024).
Like-named read-outs stand apart in the source and are kept apart here.

Assays:
[1] = Aggregation study: UV-Vis spectra before and after 0.22 μm filtration; type: physicochemical; conditions: DMSO stock diluted with saline, 4 hours at room temperature, 0.22 μm disc filter
Description: The drug concentration was […]. The sample was left for 4 hours at room temperature. UV-visible absorbance spectra of the solution before and after filtration (employing a 0.22 μm disc filter) were measured.
The formulations were placed in an ultrasonic bath at elevated temperature (40° C.) for 6 hours. After cooling to room temperature, UV-Vis spectra were measured for unfiltered solutions as well as for the solutions after filtration using a 0.22 μm disc filter.

[2] = Dissolved fraction in gamma-cyclodextrin solution, filtered vs unfiltered absorbance at 300 nm; type: physicochemical; conditions: for bazedoxifene acetate dissolved: sonicated at 40° C. for 6 hours
Description: 1.2 mL of a 40 mg/mL solution of GCD in distilled water was added into the microtube. The solution was sonicated at 40° C. for 6 hours. […] The concentration of GCD remained the same in all solutions, specifically 40 mg/mL.
Aliquots of the solutions were filtered through a 0.22 μm disc filter.
1.5 mL of a 40 mg/mL solution of gamma-cyclodextrin in saline was added into the microtube. The solution was sonicated at 40° C. for 6 hours. […] The concentration of gamma-cyclodextrin remained the same in all solutions, specifically 40 mg/mL.
1.2 mL of a 40 mg/mL solution of GCD in phosphate-buffered saline was added into the microtube. The solution was sonicated at 40° C. for 6 hours. […] The concentration of GCD remained the same in all solutions, specifically. 40 mg/ml.
The resulting mixture was ground for 20 minutes at a set grinding speed of 1000 rpm and a grinding temperature of 37° C.
20 mg of the ground mixture was weighed into a microtube and combined with 0.5 mL distilled water. The sample was then sonicated for 5 minutes at 45° C.
An aliquot of the sonicated solution was filtered through a 0.22 μm disc filter.

[3] = rats, bazedoxifene acetate in SBECD
[4] = healthy volunteers, inhalation of BAZE-X1 1.13 mg
[5] = clinical; conditions: both, human, in vivo, inhaled or intranasal, 1.13 mg

Q: For `Cc1c(-c2ccc(O)cc2)n(Cc2ccc(OCCN3CCCCCC3)cc2)c2ccc(O)cc12` [bazedoxifene acetate], which “absorbance features of the drug after filtration (aggregation)” value [1] is on record?
A: Its value is “sharp decrease in absorbance features”.

Q: What about the bazedoxifene acetate dissolved ([2]; 40 mg/mL GCD in distilled water) of the same compound?
A: The bazedoxifene acetate dissolved was 97%.

Q: And the bazedoxifene acetate dissolved ([2]; 40 mg/mL GCD in phosphate-buffered saline)?
A: The bazedoxifene acetate dissolved was 95%.

Q: And the bazedoxifene acetate dissolved ([2]; 40 mg/mL gamma-cyclodextrin in saline)?
A: The bazedoxifene acetate dissolved was 92%.

Q: Which results are given for `Cc1c(-c2ccc(O)cc2)n(Cc2ccc(OCCN3CCCCCC3)cc2)c2ccc(O)cc12` [bazedoxifene]?
A: starting bazedoxifene dissolved ([2]; mixture ground with GCD (50 mg:250 mg), 20 mg in 0.5 mL distilled water, sonicated 5 minutes at 45° C.): 99%; pathological lesions in the lungs and trachea ([3]; single intranasal 0.5 mg/kg): did not cause pathological lesions; pathological lesions in the lungs and trachea ([3]; single intravenous 0.5 mg/kg): did not cause pathological lesions; plasma levels (pg/mL) and AUC values (h·pg/mL) [4]: very low, in majority near the limit of quantitation; time to maximum plasma concentration ([4]; first measurement): 10 min; half-life [5]: 1260 min
